We go through four compounds from patent publication US8722894B2, “1,3-disubstituted-4-phenyl-1H-pyridin-2-ones” (Janssen Pharmaceuticals, Inc., priority 2007, dated 2014).

One data set concerns the target T1, human mGluR2 receptor (Homo sapiens, UniProt Q14416).
T1 construct: expressed in transfected cells; host or cells: CHO cells
Nature of the data set: [35S]GTPγS binding assay (GTPγS-PAM), membranes from cells transfected with the human mGluR2 receptor. It is filed as biochemical. The conditions noted are these: in presence of mGluR2 agonist glutamate at a predetermined EC25 concentration; CHO-cell membranes; averages of duplicate values of 11-concentration response curves; pEC50 = -logEC50; read-out: GTPgS - hR2 PAM pEC50 (converted). The protocol:
The [^35S]GTPγS binding assay is a functional membrane-based assay used to study G-protein coupled receptor (GPCR) function whereby incorporation of a non-hydrolysable form of GTP, [^35S]GTPγS (guanosine 5′-triphosphate, labelled with […] ^35S), is measured. The G-protein α subunit catalyzes the exchange of guanosine 5′-diphosphate (GDP) by guanosine triphosphate (GTP) and on activation of the GPCR by an agonist, [^35S]GTPγS, becomes incorporated and cannot be cleaved to continue the exchange cycle (Harper (1998) Current Protocols in Pharmacology 2.6.1-10, John Wiley & Sons, Inc.). […] Here we describe the use of the [^35S]GTPγS binding assay using membranes from cells transfected with the human mGluR2 receptor and adapted from Schaffhauser et al ((2003) Molecular Pharmacology 4:798-810) for the detection of the positive allosteric modulation (PAM) properties of the compounds of this invention.
CHO-cells were cultured to pre-confluence and stimulated with 5 mM butyrate for 24 hours, prior to washing in PBS, and then collection by scraping in homogenisation buffer (50 mM Tris-HCl buffer, pH 7.4, 4° C.). Cell lysates were homogenized briefly (15 s) using an ultra-turrax homogenizer. The homogenate was centrifuged at 23 500×g for 10 minutes and the supernatant discarded. The pellet was resuspended in 5 mM Tris-HCl, pH 7.4 and centrifuged again (30 000×g, 20 min, 4° C.). The final pellet was resuspended in 50 mM HEPES, pH 7.4 and stored at −80° C. in appropriate aliquots before use. Protein concentration was determined by the Bradford method (Bio-Rad, USA) with bovine serum albumin as standard.
Measurement of mGluR2 positive allosteric modulatory activity of test compounds in membranes containing human mGluR2 was performed using frozen membranes that were thawed and briefly homogenised prior to pre-incubation in 96-well microplates (15 μg/assay well, 30 minutes, 30° C.) in assay buffer (50 mM HEPES pH 7.4, 100 mM NaCl, 3 mM MgCl2, 50 μM GDP, 10 μg/ml saponin,) with increasing concentrations of positive allosteric modulator (from 0.3 nM to 50 μM) and either a minimal pre-determined concentration of glutamate (PAM assay), or no added glutamate. For the PAM assay, membranes were pre-incubated with glutamate at EC25 concentration, i.e. a concentration that gives 25% of the maximal response glutamate, and is in accordance to published data (Pin et al. (1999) Eur. J. Pharmacol. 375:277-294). […] Filters were then air-dried, and 40 μl of liquid scintillation cocktail (Microscint-O) was added to each well, and membrane-bound [^35S]GTPγS was measured in a 96-well scintillation plate reader (Top-Count, Perkin-Elmer, USA). Non-specific [^35S]GTPγS binding is determined in the presence of cold 10 μM GTP. […]
In general terms: GTPγS is a poorly hydrolysed GTP analogue; its binding reports G protein activation.

T1 sequence (Q14416 19-872): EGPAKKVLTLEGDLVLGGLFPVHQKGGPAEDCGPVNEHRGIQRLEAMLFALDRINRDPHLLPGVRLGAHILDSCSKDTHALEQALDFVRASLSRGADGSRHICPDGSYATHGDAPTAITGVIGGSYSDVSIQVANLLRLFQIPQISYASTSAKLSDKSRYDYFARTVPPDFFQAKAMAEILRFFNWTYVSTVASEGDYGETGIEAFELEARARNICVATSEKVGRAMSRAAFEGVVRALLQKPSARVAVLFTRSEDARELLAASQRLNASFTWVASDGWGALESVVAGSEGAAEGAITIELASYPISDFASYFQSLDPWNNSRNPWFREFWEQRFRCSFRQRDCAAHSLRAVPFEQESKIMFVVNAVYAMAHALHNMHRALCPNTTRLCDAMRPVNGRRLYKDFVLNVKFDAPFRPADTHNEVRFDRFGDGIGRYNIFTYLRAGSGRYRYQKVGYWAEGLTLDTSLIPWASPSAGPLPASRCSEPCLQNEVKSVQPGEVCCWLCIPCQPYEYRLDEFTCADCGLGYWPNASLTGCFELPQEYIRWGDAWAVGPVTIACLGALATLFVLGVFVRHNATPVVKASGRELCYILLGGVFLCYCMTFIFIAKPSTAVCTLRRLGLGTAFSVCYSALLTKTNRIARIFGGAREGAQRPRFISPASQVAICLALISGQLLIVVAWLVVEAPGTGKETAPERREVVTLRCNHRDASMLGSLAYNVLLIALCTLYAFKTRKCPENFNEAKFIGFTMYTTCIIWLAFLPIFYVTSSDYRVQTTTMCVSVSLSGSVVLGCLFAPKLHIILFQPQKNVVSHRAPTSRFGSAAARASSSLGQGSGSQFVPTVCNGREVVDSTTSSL

Regarding `O=c1c(Cl)c(-c2ccc(OC3CCOCC3)c(Cl)c2)ccn1CCC1CC1` [Compound 4], the melting point (as a rule, the temperature of the solid-liquid transition) was found to be 154 °C. For the same compound, the EC50 on human mGluR2 receptor is 0.275 µM.

`O=c1c(Cl)c(-c2ccc(NC3CCOCC3)c(C(F)(F)F)c2)ccn1CC1CC1` [Compound 5] showed a melting point of 173 °C. In addition, the EC50 on human mGluR2 receptor is 0.813 µM.

Consider `O=c1c(Cl)c(-c2ccc(NC3CCOCC3)c(Cl)c2)ccn1CC1CC1` [Compound 6], for which the melting point was determined as 231 °C. Besides, the EC50 on human mGluR2 receptor was 0.575 µM.

Consider `CCCCn1ccc(-c2ccc(NC3CCC(C)(O)CC3)c(Cl)c2)c(Cl)c1=O` (centres unmarked) [Compound 7], for which the melting point worked out at 227.4 °C. Besides, at human mGluR2 receptor, the EC50 is 0.0398 µM.
